Data from patent US11174251B2, “Compositions and methods for inhibition of the JAK pathway” (Rigel Pharmaceuticals, Inc., priority 2010, dated 2021).
Structures can show the parent of a compound that is named as a salt.

Biological target: T1, JAK3 (Homo sapiens, UniProt P52333)
T1 construct: The Ramos B-cell line was acquired from ATCC (ATCC Catalog No. CRL-1596); host or cells: Ramos B-cell line (human)
T1 sequence (P52333 1-1124): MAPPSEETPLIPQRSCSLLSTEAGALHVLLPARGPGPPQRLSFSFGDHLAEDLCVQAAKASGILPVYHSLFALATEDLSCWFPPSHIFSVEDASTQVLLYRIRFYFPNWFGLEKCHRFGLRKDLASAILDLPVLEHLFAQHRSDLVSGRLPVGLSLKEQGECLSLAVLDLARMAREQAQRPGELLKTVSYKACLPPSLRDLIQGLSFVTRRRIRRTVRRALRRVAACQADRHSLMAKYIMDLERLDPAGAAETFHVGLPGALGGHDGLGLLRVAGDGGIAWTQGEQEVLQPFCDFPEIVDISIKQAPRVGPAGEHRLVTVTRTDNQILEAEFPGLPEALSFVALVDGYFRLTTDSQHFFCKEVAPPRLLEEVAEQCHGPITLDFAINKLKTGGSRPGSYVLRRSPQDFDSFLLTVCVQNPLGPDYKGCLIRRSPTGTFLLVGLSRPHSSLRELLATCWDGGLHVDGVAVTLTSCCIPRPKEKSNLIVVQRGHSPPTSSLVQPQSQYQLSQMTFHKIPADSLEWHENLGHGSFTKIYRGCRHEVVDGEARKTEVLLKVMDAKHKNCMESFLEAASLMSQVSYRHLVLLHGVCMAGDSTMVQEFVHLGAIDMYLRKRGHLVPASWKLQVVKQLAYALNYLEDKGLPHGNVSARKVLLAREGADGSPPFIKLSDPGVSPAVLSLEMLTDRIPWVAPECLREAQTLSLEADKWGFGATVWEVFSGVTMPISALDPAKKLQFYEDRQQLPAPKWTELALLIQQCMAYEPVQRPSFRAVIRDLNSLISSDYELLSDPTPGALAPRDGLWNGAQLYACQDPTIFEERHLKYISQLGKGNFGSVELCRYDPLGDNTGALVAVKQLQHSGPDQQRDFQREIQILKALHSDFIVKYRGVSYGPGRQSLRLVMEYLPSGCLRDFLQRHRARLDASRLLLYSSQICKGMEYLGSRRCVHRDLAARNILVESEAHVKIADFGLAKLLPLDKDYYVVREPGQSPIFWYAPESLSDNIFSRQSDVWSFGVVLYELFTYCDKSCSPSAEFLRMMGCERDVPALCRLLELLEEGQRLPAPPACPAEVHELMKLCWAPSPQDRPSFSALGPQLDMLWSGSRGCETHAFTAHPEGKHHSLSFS
Assay: Assay for CD23 expression on Ramos B-cells stimulated by IL-4 (Table IV: ability to inhibit JAK3 activity)
Assay type: cell-based
Settings: tested under conditions described in Example 3 (so in the source)
Summary of the method: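 IL-4-induced CD23 surface expression on human Ramos B cells, detected by flow cytometry after 20–24 h stimulation (IL-4 final 50 units/mL). Compound or DMSO added 1 h beforehand at 37 °C; cells kept in RPMI with 5% serum.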

SMILES | IC50 [nM]
Cc1cnc(Nc2cc(C)c(CO)c(C)c2)nc1Nc1ccc2oc(=O)[nH]c2c1 [Compound I-142, N2-(3,5-dimethyl-4-hydroxymethyl)phenyl-5-methyl-N4-(2-oxo-2,3-dihydro-1,3-benzoxazol-5-yl)-2,4-pyrimidinediamine] | < 500
COCc1c(C)cc(Nc2ncc(C)c(Nc3ccc4oc(=O)[nH]c4c3)n2)cc1C [Compound I-143, N2-(3,5-dimethyl-4-methoxymethyl)phenyl-5-methyl-N4-(2-oxo-2,3-dihydro-1,3-benzoxazol-5-yl)-2,4-pyrimidinediamine] | < 500
COC(=O)c1cc(Nc2ncc(C)c(Nc3ccc4oc(=O)[nH]c4c3)n2)cc(C)c1C [Compound I-144, N2-(3,4-dimethyl-5-methoxycarbonyl)phenyl-5-methyl-N4-(2-oxo-2,3-dihydro-1,3-benzoxazol-5-yl)-2,4-pyrimidinediamine] | < 500
CCCCc1ccc(Nc2ncc(C)c(Nc3ccc4oc(=O)[nH]c4c3)n2)cc1C [Compound I-148, N2-(4-n-butyl-3-methyl)phenyl-5-methyl-N4-(2-oxo-2,3-dihydro-1,3-benzoxazol-5-yl)-2,4-pyrimidinediamine] | 5000 to 10000
Cc1cnc(Nc2cc(C)c(Br)c(C)c2)nc1Nc1ccc2oc(=O)[nH]c2c1 [Compound I-149, N2-(4-bromo-3,5-dimethyl)phenyl-5-methyl-N4-(2-oxo-2,3-dihydro-1,3-benzoxazol-5-yl)-2,4-pyrimidinediamine] | < 500
Cc1cnc(Nc2cc(C)c(C(=O)OC(C)(C)C)c(C)c2)nc1Nc1ccc2oc(=O)[nH]c2c1 [Compound I-150, N2-(4-tert-butoxycarbonyl-3,5-dimethyl)phenyl-5-methyl-N4-(2-oxo-2,3-dihydro-1,3-benzoxazol-5-yl)-2,4-pyrimidinediamine] | < 500
COC(=O)c1cc(Nc2ncc(C)c(Nc3ccc4oc(=O)[nH]c4c3)n2)cc(C)c1F [Compound I-153, N2-(4-fluoro-3-methoxycarbonyl-5-methyl)phenyl-5-methyl-N4-(2-oxo-2,3-dihydro-1,3-benzoxazol-5-yl)-2,4-pyrimidinediamine] | < 500
Cc1cnc(Nc2cc(C)c(F)c(CO)c2)nc1Nc1ccc2oc(=O)[nH]c2c1 [Compound I-154, N2-(4-fluoro-3-hydroxymethyl-5-methyl)phenyl-5-methyl-N4-(2-oxo-2,3-dihydro-1,3-benzoxazol-5-yl)-2,4-pyrimidinediamine] | < 500
Cc1cnc(Nc2cc(C)c(F)c(C(=O)O)c2)nc1Nc1ccc2oc(=O)[nH]c2c1 [Compound I-155, N2-(3-carboxy-4-fluoro-5-methyl)phenyl-5-methyl-N4-(2-oxo-2,3-dihydro-1,3-benzoxazol-5-yl)-2,4-pyrimidinediamine] | 500 to 5000
CC(NC1CC1)c1ccc(Nc2ncc(F)c(Nc3ccc4oc(=O)[nH]c4c3)n2)cc1 (centres unmarked) [Compound I-158, 5-(2-(4-(1-(cyclopropylamino)ethyl)phenylamino)-5-fluoropyrimidin-4-ylamino)benzo[d]oxazol-2(3H)-one formate salt] | < 500
O=C(NC1CC1)c1ccc(Nc2ncc(F)c(Nc3ccc4oc(=O)[nH]c4c3)n2)cc1 [Compound I-161, N-cyclopropyl-4-(5-fluoro-4-(2-oxo-2,3-dihydrobenzo[d]oxazol-5-ylamino)pyrimidin-2-ylamino)benzamide formate salt] | < 500
CC(C)NC(=O)c1ccc(Nc2ncc(F)c(Nc3ccc4oc(=O)[nH]c4c3)n2)cc1 [Compound I-163, 4-(5-fluoro-4-(2-oxo-2,3-dihydrobenzo[d]oxazol-5-ylamino)pyrimidin-2-ylamino)-N-isopropylbenzamide formate salt] | < 500
COc1cc(Nc2ncc(F)c(Nc3ccc4oc(=O)[nH]c4c3)n2)ccc1C(=O)NC1CCC1 [Compound I-164, N-cyclobutyl-4-(5-fluoro-4-(2-oxo-2,3-dihydrobenzo[d]oxazol-5-ylamino)pyrimidin-2-ylamino)-2-methoxybenzamide formate salt] | < 500
O=C(NC1CC1)c1ccc(Nc2ncc(F)c(Nc3ccc4oc(=O)[nH]c4c3)n2)cc1C(F)(F)F [Compound I-165, N-cyclopropyl-4-(5-fluoro-4-(2-oxo-2,3-dihydrobenzo[d]oxazol-5-ylamino)pyrimidin-2-ylamino)-2-(trifluoromethyl)benzamide formate salt] | < 500

Next, values leading:

IC50 [nM] | SMILES
500 to 5000 | Cc1cnc(Nc2cc(C)c(C(=O)O)c(C)c2)nc1Nc1ccc2oc(=O)[nH]c2c1 [Compound I-140, N2-(4-carboxy-3,5-dimethyl)phenyl-5-methyl-N4-(2-oxo-2,3-dihydro-1,3-benzoxazol-5-yl)-2,4-pyrimidinediamine]
< 500 | Cc1cnc(Nc2cc(C)c(C(=O)OCc3ccccc3)c(C)c2)nc1Nc1ccc2oc(=O)[nH]c2c1 [Compound I-141, N2-(4-benzyloxycarbonyl-3,5-dimethyl)phenyl-5-methyl-N4-(2-oxo-2,3-dihydro-1,3-benzoxazol-5-yl)-2,4-pyrimidinediamine]
500 to 5000 | Cc1cnc(Nc2cc(C)c(C)c(C(=O)O)c2)nc1Nc1ccc2oc(=O)[nH]c2c1 [Compound I-145, N2-(3-carboxy-4,5-dimethyl)phenyl-5-methyl-N4-(2-oxo-2,3-dihydro-1,3-benzoxazol-5-yl)-2,4-pyrimidinediamine]
< 500 | Cc1cnc(Nc2cc(C)c(F)c(C)c2)nc1Nc1ccc2oc(=O)[nH]c2c1 [Compound I-146, N2-(3,5-dimethyl-4-fluoro)phenyl-5-methyl-N4-(2-oxo-2,3-dihydro-1,3-benzoxazol-5-yl)-2,4-pyrimidinediamine benzenesulfonic acid salt]
< 500 | Cc1cnc(Nc2cc(C)c(C)c(CO)c2)nc1Nc1ccc2oc(=O)[nH]c2c1 [Compound I-147, N2-(3,4-dimethyl-5-hydroxymethyl)phenyl-5-methyl-N4-(2-oxo-2,3-dihydro-1,3-benzoxazol-5-yl)-2,4-pyrimidinediamine]
5000 to 10000 | Cc1ccc(Nc2ncc(C)c(Nc3ccc4oc(=O)[nH]c4c3)n2)cc1C(=O)O [Compound I-152, N2-(3-carboxy-4-methyl)phenyl-5-methyl-N4-(2-oxo-2,3-dihydro-1,3-benzoxazol-5-yl)-2,4-pyrimidinediamine]
< 500 | CC(=O)c1ccc(Nc2ncc(F)c(Nc3ccc4oc(=O)[nH]c4c3)n2)cc1 [Compound I-157, 5-(2-(4-acetylphenylamino)-5-fluoropyrimidin-4-ylamino)benzo[d]oxazol-2(3H)-one formate salt]
< 500 | O=C(NC1CCC1)c1ccc(Nc2ncc(F)c(Nc3ccc4oc(=O)[nH]c4c3)n2)cc1 [Compound I-159, N-cyclobutyl-4-(5-fluoro-4-(2-oxo-2,3-dihydrobenzo[d]oxazol-5-ylamino)pyrimidin-2-ylamino)benzamide formate salt]
< 500 | CCCNC(=O)c1ccc(Nc2ncc(F)c(Nc3ccc4oc(=O)[nH]c4c3)n2)cc1 [Compound I-160, 4-(5-fluoro-4-(2-oxo-2,3-dihydrobenzo[d]oxazol-5-ylamino)pyrimidin-2-ylamino)-N-propylbenzamide formate salt]
< 500 | CCNC(=O)c1ccc(Nc2ncc(F)c(Nc3ccc4oc(=O)[nH]c4c3)n2)cc1 [Compound I-162, N-ethyl-4-(5-fluoro-4-(2-oxo-2,3-dihydrobenzo[d]oxazol-5-ylamino)pyrimidin-2-ylamino)benzamide formate salt]
< 500 | O=C(Nc1ccccc1)c1ccc(Nc2ncc(F)c(Nc3ccc4oc(=O)[nH]c4c3)n2)cc1C(F)(F)F [Compound I-166, 4-(5-fluoro-4-(2-oxo-2,3-dihydrobenzo[d]oxazol-5-ylamino)pyrimidin-2-ylamino)-N-phenyl-2-(trifluoromethyl)benzamide formate salt]
< 500 | Cc1ccc(Nc2ncc(F)c(Nc3ccc4oc(=O)[nH]c4c3)n2)cc1S(C)(=O)=O [Compound I-167, 5-(2-(4-methyl-3-(methylsulfonyl)phenylamino)-5-fluoropyrimidin-4-ylamino)benzo[d]oxazol-2(3H)-one trifluoroacetate salt]
